Patent US20240208968A1, “ALPHA V BETA 6 AND ALPHA V BETA 1 INTEGRIN INHIBITORS AND USES THEREOF” (DiCE Molecules SV, Inc., priority 2021, published 2024)
pIC50: −log10 of the molar value. Where a name gives a salt, the structure may show the parent alone.

Legend:
αvβ1 = αvβ1 (Homo sapiens, UniProt P05556+P06756); test: Solid Phase Integrin αvβ1 Assay; assay type: binding
Procedure, shortened: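 Compound competes for αvβ1 binding to immobilized TGFb1-LAP (1 µg/mL coat) in Mn2+ (1 mM MnCl2), 2% BSA binding buffer over 90 min at room temperature, integrin added at 0.2 µg/mL. Read-out: streptavidin-HRP/TMB; IC50 from Levenberg-Marquardt four-parameter fit.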

αvβ6 = αvβ6 (Homo sapiens, UniProt P06756+P18564); test: Solid Phase Integrin αvβ6 Assay; assay type: binding
Procedure, shortened: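 Inhibition of αvβ6 binding to immobilized recombinant TGFb1-LAP (1 μg/mL coating), 1 h at room temperature with 1 mM MnCl2 in BSA/TBST buffer, integrin diluted to 0.2 μg/mL before addition. Streptavidin-HRP/TMB read-out; four-parameter logistic fitting gave IC50.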

Sequence of αvβ1 (P06756 31-992 limits assumed): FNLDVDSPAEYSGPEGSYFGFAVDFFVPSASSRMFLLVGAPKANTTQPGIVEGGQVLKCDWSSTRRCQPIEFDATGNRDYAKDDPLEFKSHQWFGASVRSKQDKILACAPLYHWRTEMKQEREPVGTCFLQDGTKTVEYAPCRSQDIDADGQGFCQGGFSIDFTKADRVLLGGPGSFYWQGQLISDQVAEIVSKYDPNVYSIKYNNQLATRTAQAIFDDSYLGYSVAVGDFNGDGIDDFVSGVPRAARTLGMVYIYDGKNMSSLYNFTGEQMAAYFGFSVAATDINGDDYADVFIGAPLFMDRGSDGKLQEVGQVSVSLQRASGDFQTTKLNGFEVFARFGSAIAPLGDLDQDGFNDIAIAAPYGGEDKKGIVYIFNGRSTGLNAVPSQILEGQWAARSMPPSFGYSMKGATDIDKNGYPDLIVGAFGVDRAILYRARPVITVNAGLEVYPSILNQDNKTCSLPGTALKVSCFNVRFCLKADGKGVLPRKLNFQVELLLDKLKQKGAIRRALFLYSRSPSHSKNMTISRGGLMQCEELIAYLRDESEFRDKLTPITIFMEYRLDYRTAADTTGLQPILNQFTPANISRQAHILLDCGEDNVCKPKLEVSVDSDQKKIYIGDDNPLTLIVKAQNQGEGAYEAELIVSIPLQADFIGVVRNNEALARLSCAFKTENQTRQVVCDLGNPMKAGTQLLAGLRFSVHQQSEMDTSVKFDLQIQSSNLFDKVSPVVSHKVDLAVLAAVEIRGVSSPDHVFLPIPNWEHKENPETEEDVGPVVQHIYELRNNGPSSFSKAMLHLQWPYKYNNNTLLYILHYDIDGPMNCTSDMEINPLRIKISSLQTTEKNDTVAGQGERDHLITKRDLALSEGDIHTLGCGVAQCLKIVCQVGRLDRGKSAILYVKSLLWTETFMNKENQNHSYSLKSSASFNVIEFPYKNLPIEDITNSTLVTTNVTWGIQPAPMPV
Sequence of αvβ1 (P05556 21-728 limits assumed): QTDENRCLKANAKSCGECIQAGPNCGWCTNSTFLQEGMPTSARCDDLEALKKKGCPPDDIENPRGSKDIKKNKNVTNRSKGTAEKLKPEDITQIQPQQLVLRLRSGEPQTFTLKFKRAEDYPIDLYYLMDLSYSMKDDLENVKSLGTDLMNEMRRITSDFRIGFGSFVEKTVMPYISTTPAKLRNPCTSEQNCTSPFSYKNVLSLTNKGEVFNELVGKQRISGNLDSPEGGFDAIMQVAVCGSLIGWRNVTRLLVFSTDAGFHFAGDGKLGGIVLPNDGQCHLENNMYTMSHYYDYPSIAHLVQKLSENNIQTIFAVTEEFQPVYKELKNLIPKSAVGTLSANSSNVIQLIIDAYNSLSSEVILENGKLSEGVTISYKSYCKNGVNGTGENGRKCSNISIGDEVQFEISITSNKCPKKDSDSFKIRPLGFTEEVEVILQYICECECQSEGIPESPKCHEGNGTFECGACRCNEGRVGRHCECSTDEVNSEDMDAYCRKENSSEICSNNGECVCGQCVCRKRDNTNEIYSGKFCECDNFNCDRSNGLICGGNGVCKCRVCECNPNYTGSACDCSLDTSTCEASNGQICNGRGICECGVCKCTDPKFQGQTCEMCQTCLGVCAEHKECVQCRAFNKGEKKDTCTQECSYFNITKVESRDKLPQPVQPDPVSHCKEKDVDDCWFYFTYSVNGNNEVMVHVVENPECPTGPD
Sequence of αvβ6 (P06756 31-992 limits assumed): as the sequence (P06756 31-992 limits assumed) above
Sequence of αvβ6 (P18564 22-707 limits assumed): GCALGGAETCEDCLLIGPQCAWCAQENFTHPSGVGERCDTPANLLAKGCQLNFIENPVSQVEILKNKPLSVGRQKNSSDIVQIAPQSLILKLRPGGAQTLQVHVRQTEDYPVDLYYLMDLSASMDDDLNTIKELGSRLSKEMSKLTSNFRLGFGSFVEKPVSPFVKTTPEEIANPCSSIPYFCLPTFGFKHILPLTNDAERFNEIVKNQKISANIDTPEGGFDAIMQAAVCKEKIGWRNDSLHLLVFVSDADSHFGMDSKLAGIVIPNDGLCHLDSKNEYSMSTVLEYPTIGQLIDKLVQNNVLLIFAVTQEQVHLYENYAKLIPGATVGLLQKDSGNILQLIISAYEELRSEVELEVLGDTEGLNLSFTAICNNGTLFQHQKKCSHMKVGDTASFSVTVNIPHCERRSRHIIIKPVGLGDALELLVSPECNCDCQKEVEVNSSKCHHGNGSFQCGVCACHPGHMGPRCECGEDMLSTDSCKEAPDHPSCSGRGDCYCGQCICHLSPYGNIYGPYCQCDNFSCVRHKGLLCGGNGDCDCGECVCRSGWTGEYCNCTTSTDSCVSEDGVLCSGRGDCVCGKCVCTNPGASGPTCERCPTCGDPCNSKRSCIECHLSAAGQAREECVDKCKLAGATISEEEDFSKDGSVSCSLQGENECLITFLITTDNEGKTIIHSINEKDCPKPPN

SMILES: CC1(C)CCN(c2cccc([C@@H](CO[C@@H]3CCCN(CCCc4ccc5c(n4)NCCC5)C3)CC(=O)O)c2)CC1 [Compound 571]
- pIC50 (αvβ1): > 7.00
- pIC50 (αvβ6): > 7.00

SMILES: O=C(O)C[C@H](NC(=O)[C@@H]1CCCN(CCCc2ccc3c(n2)NCCC3)C1)c1cccc(-c2ccccc2)c1 [Compound 240, (S)-3-([1,1′-biphenyl]-3-yl)-3-((R)-1-(3-(5,6,7,8-tetrahydro-1,8-naphthyridin-2-yl)propyl)piperidine-3-carboxamido)propanoic acid hydrochloride]
- pIC50 (αvβ1): > 7.00
- pIC50 (αvβ6): > 7.00

SMILES: O=C(O)C[C@H](NC(=O)[C@@H]1CCCN(CCc2ccc3c(n2)NCCC3)C1)c1ccccc1 [Compound 290, (S)-3-phenyl-3-((R)-1-(2-(5,6,7,8-tetrahydro-1,8-naphthyridin-2-yl)ethyl)piperidine-3-carboxamido)propanoic acid]
- pIC50 (αvβ1): < 6.00
- pIC50 (αvβ6): 6.00 to 7.00

SMILES: C[C@@H]1CN(c2cccc([C@H](CC(=O)O)NC(=O)[C@@H]3CCCN(CCCc4ccc5c(n4)NCCC5)C3)c2)C[C@@H](C)O1 [Compound 618]
- pIC50 (αvβ1): > 7.00
- pIC50 (αvβ6): > 7.00

SMILES: O=C(O)C[C@H](NC(=O)[C@@H]1CCCN(CCCc2ccc3c(n2)NCCC3)C1)c1cccc(C(F)(F)F)c1 (single isomer, unassigned) [Compound 203-A, hydrochloride]
- pIC50 (αvβ1): < 6.00
- pIC50 (αvβ6): 6.00 to 7.00

SMILES: O=C(O)C[C@H](NC(=O)[C@@H]1CCCN(CCCc2ccc3c(n2)NCCC3)C1)c1cc(C2CC2)ccc1F [Compound 245-A, 3-(5-cyclopropyl-2-fluorophenyl)-3-((R)-1-(3-(5,6,7,8-tetrahydro-1,8-naphthyridin-2-yl)propyl)piperidine-3-carboxamido)propanoic acid]
- pIC50 (αvβ1): 6.00 to 7.00
- pIC50 (αvβ6): > 7.00

SMILES: C[C@H]1C[C@H](C(=O)NC[C@H](C(=O)O)c2cccc(-c3ccccc3)c2)CN(CCCc2ccc3c(n2)NCCC3)C1 [Compound 638]
- pIC50 (αvβ1): > 7.00
- pIC50 (αvβ6): > 7.00

SMILES: Cc1csc2c(N[C@@H](CNC(=O)[C@@H]3CCCN(CCCc4ccc5c(n4)NCCC5)C3)C(=O)O)ncnc12 [Compound 277, (2S)-2-[(7-methylthieno[3,2-d]pyrimidin-4-yl)amino]-3-[[(3R)-1-[3-(5,6,7,8-tetrahydro-1,8-naphthyridin-2-yl)propyl]piperidine-3-carbonyl]amino]propanoic acid]
- pIC50 (αvβ1): > 7.00
- pIC50 (αvβ6): > 7.00

SMILES: O=C(O)CC(CC(=O)N[C@@H]1CCN(C(=O)CCCc2ccc3c(n2)NCCC3)C1)c1ccccc1 (some centres unmarked) [Compound 524]
- pIC50 (αvβ1): > 7.00
- pIC50 (αvβ6): 6.00 to 7.00

SMILES: O=C(O)C[C@@H](NC(=O)[C@@H]1CCCN(CCCc2ccc3c(n2)NCCC3)C1)c1ccc2nccnc2c1 [Compound 215-B, 3-(quinoxalin-6-yl)-3-((R)-1-(3-(5,6,7,8-tetrahydro-1,8-naphthyridin-2-yl)propyl)piperidine-3-carboxamido)propanoic acid]
- pIC50 (αvβ1): > 7.00
- pIC50 (αvβ6): > 7.00

SMILES: O=C(O)C[C@H](NC(=O)[C@@H]1CCCN(CCCc2ccc3c(n2)NCCC3)C1)c1cccc(C2CC2)c1F [Compound 559]
- pIC50 (αvβ1): < 6.00
- pIC50 (αvβ6): 6.00 to 7.00

SMILES: O=C(O)[C@H](CO[C@@H]1CCCN(CCCc2ccc3c(n2)NCCC3)C1)Nc1ncnc2ccccc12 [Compound 388]
- pIC50 (αvβ1): 6.00 to 7.00
- pIC50 (αvβ6): > 7.00

SMILES: O=C(O)C[C@H](NC(=O)[C@@H]1CCCN(CCCc2ccc3c(n2)NCCC3)C1)c1cnc2ccccc2c1 [Compound 540]
- pIC50 (αvβ1): 6.00 to 7.00
- pIC50 (αvβ6): 6.00 to 7.00

SMILES: O=C(O)[C@H](CCO[C@@H]1CCCN(CCCc2ccc3c(n2)NCCC3)C1)c1ccc(C2CC2)cc1 [Compound 516]
- pIC50 (αvβ1): > 7.00
- pIC50 (αvβ6): > 7.00

SMILES: O=C(NC[C@@H](C(=O)O)c1ccc2c(c1)CCCC2)[C@@H]1CCCN(CCCc2ccc3c(n2)NCCC3)C1 [Compound 248-B, 3-((R)-1-(3-(5,6,7,8-tetrahydro-1,8-naphthyridin-2-yl)propyl)piperidine-3-carboxamido)-2-(5,6,7,8-tetrahydronaphthalen-2-yl)propanoic acid]
- pIC50 (αvβ1): > 7.00
- pIC50 (αvβ6): > 7.00

SMILES: C[C@@H]1[C@@H](C)OCCN1c1cccc([C@H](CC(=O)O)NC(=O)[C@@H]2CCCN(CCCc3ccc4c(n3)NCCC4)C2)c1 [Compound 585]
- pIC50 (αvβ1): > 7.00
- pIC50 (αvβ6): > 7.00

SMILES: O=C(O)C[C@@H](CO[C@H]1CCCN(CCCc2ccc3c(n2)NCCC3)C1)c1ccccc1 [Compound 445]
- pIC50 (αvβ1): 6.00 to 7.00
- pIC50 (αvβ6): 6.00 to 7.00

SMILES: O=C(O)C[C@H](NC[C@@H]1CCCN(CCCc2ccc3c(n2)NCCC3)C1)c1cccc(C2CC2)c1 [Compound 529]
- pIC50 (αvβ1): 6.00 to 7.00
- pIC50 (αvβ6): 6.00 to 7.00

SMILES: O=C(NC[C@H](C(=O)O)c1cccc(-c2cccc(C(F)(F)F)c2)c1)[C@@H]1CCCN(CCCc2ccc3c(n2)NCCC3)C1 [Compound 518]
- pIC50 (αvβ1): > 7.00
- pIC50 (αvβ6): > 7.00

SMILES: O=C(NC[C@@H](C(=O)O)c1cccc(Oc2ccccc2)c1)[C@@H]1CCCN(CCCc2ccc3c(n2)NCCC3)C1 [Compound 251-A]
- pIC50 (αvβ1): 6.00 to 7.00
- pIC50 (αvβ6): 6.00 to 7.00

SMILES: CN1CCc2cc(S(=O)(=O)N[C@H](CNC(=O)[C@@H]3CCCN(CCCc4ccc5c(n4)NCCC5)C3)C(=O)O)ccc21 [Compound 450]
- pIC50 (αvβ1): < 6.00
- pIC50 (αvβ6): 6.00 to 7.00

SMILES: CC1(C)CN(c2cccc([C@H](CO[C@@H]3CCCN(CCCc4ccc5c(n4)NCCC5)C3)CC(=O)O)c2)CCC1(F)F [Compound 651]
- pIC50 (αvβ1): > 7.00
- pIC50 (αvβ6): > 7.00

SMILES: O=C(N[C@@H](CNC(=O)[C@@H]1CCCN(CCCc2ccc3c(n2)NCCC3)C1)C(=O)O)c1ccc(Cl)cc1 [Compound 372]
- pIC50 (αvβ1): > 7.00
- pIC50 (αvβ6): > 7.00

SMILES: O=C(NC[C@H](C(=O)O)c1cnc2c(ccn2CC2CC2)c1)[C@@H]1CCCN(CCCc2ccc3c(n2)NCCC3)C1 [Compound 327]
- pIC50 (αvβ1): > 7.00
- pIC50 (αvβ6): > 7.00

SMILES: O=C(O)C[C@H](CO[C@@H]1CCCN(CCCCc2ccc3c(n2)NCCC3)C1)c1ccccc1 [Compound 357]
- pIC50 (αvβ1): 6.00 to 7.00
- pIC50 (αvβ6): 6.00 to 7.00

SMILES: O=C(O)[C@H](CO[C@@H]1CCCN(Cc2ccc3c(n2)NCCC3)C1)NC(=O)C12CCC(CC1)CC2 [Compound 404]
- pIC50 (αvβ1): < 6.00
- pIC50 (αvβ6): < 6.00

SMILES: O=C(O)[C@@H](CCO[C@@H]1CCCN(CCCc2ccc3c(n2)NCCC3)C1)c1ccc(F)c(-c2ccccc2)c1 [Compound 485]
- pIC50 (αvβ1): < 6.00
- pIC50 (αvβ6): < 6.00

SMILES: O=C(O)[C@H](CCO[C@@H]1CCCN(CCCCc2ccc3c(n2)NCCC3)C1)Nc1ncnc2ccccc12 [Compound 385]
- pIC50 (αvβ1): < 6.00
- pIC50 (αvβ6): 6.00 to 7.00

SMILES: O=C(O)[C@H](CCO[C@@H]1CCCN(CCCCc2ccc3c(n2)NCCC3)C1)NC(=O)C12CCC(CC1)CC2 [Compound 399]
- pIC50 (αvβ1): > 7.00
- pIC50 (αvβ6): > 7.00

SMILES: O=C(O)C[C@H](CO[C@@H]1CCCN(CCc2ccc3c(n2)NCCC3)C1)c1ccccc1 [Compound 353]
- pIC50 (αvβ1): < 6.00
- pIC50 (αvβ6): 6.00 to 7.00

SMILES: O=C(O)CC(NC(=O)[C@@H]1CCCN(CCCc2ccc3c(n2)NCCC3)C1)c1cccc(O)c1 (some centres unmarked) [Compound 377]
- pIC50 (αvβ1): > 7.00
- pIC50 (αvβ6): > 7.00

SMILES: O=C(O)C[C@H](OC[C@@H]1CCCN(CCCc2ccc3c(n2)NCCC3)C1)c1cccc(C2CC2)c1 [Compound 528]
- pIC50 (αvβ1): < 6.00
- pIC50 (αvβ6): < 6.00

SMILES: O=C(N[C@H](CCO[C@@H]1CCCN(CCCc2ccc3c(n2)NCCC3)C1)C(=O)O)c1ccccc1 [Compound 479]
- pIC50 (αvβ1): 6.00 to 7.00
- pIC50 (αvβ6): 6.00 to 7.00

SMILES: O=C(O)C(CNC(=O)[C@@H]1CCCN(CCCc2ccc3c(n2)NCCC3)C1)c1ccc(C2CC2)cc1 (single isomer, unassigned) [Compound 259-B]
- pIC50 (αvβ1): > 7.00
- pIC50 (αvβ6): 6.00 to 7.00

SMILES: O=C(NC[C@@H](C(=O)O)c1cccc2c1CCCC2)[C@@H]1CCCN(CCCc2ccc3c(n2)NCCC3)C1 [Compound 253-B, 3-((R)-1-(3-(5,6,7,8-tetrahydro-1,8-naphthyridin-2-yl)propyl)piperidine-3-carboxamido)-2-(5,6,7,8-tetrahydronaphthalen-1-yl)propanoic acid]
- pIC50 (αvβ1): 6.00 to 7.00
- pIC50 (αvβ6): < 6.00

SMILES: COc1ccc([C@H](CC(=O)O)NC(=O)[C@@H]2CCCN(CCCc3ccc4c(n3)NCCC4)C2)cn1 [Compound 221, (S)-3-(6-methoxypyridin-3-yl)-3-((R)-1-(3-(5,6,7,8-tetrahydro-1,8-naphthyridin-2-yl)propyl)piperidine-3-carboxamido)propanoic acid hydrochloride]
- pIC50 (αvβ1): > 7.00
- pIC50 (αvβ6): > 7.00

SMILES: O=C(O)C[C@H](CO[C@@H]1CCCN(CCCc2ccc3c(n2)NCCC3)C1)c1ccccc1-c1ccccc1 [Compound 460]
- pIC50 (αvβ1): < 6.00
- pIC50 (αvβ6): < 6.00

SMILES: O=C(O)[C@@H](CCO[C@@H]1CCCN(Cc2ccc3c(n2)NCCC3)C1)NC(=O)C12CCC(CC1)CC2 [Compound 381]
- pIC50 (αvβ1): > 7.00
- pIC50 (αvβ6): > 7.00

SMILES: O=C(CC[C@H](C(=O)O)c1ccccc1)N[C@@H]1CCN(C(=O)CCCc2ccc3c(n2)NCCC3)C1 [Compound 418]
- pIC50 (αvβ1): < 6.00
- pIC50 (αvβ6): < 6.00

SMILES: C[C@H]1C[C@H](C(=O)NC[C@H](C(=O)O)c2ccc3ccccc3c2)CN(CCCc2ccc3c(n2)NCCC3)C1 [Compound 635]
- pIC50 (αvβ1): 6.00 to 7.00
- pIC50 (αvβ6): 6.00 to 7.00

SMILES: O=C(CC[C@@H](NC(=O)[C@@H]1CCCN1S(=O)(=O)c1ccccc1)C(=O)O)N[C@H]1CCN(CCCCc2ccc3c(n2)NCCC3)C1 [Compound 437]
- pIC50 (αvβ1): > 7.00
- pIC50 (αvβ6): < 6.00

SMILES: Cc1cc(C)n(-c2cccc([C@H](CC(=O)O)NC(=O)[C@@H]3CCCN(CCCc4ccc5c(n4)NCCC5)C3)c2)c1 [Compound 586]
- pIC50 (αvβ1): > 7.00
- pIC50 (αvβ6): > 7.00

SMILES: O=C(O)C[C@@H](O[C@@H]1CCCN(CCCc2ccc3c(n2)NCCC3)C1)c1ccccc1 [Compound 351]
- pIC50 (αvβ1): < 6.00
- pIC50 (αvβ6): < 6.00
